Source: patent US8278285B2, “Gastric carcinoma gene ZNF312b, a protein translated from the gene, and a diagnostic kit and a screening method for anticancer agents using the same” (Korea Research Institute of Bioscience and Biotechnology, priority 2007, dated 2012)

Columns and labels:
K-ras / ERK pathway = assay: Western blotting of cell proliferation signal pathway after ZNF312b inhibition; type: cell-based, human; settings: stomach cancer cell line transfected with siRNA, FIG. 24
Procedure: First, lysis buffer A [20 mM HEPES (pH7.5), 150 mM NaCl, 1 mM EDTA, 2 mM EGTA, 1% Triton X-100, 10% glycerol, protease cocktail I, II (Sigma, USA)] was added to the cells, which stood at 4° C. for 20 minutes. The cell lysate was transferred into a new tube, followed by centrifugation at 4° C. at 15,000 rpm for 10 minutes to obtain protein. The cell lysate was heated at 95° C. for 10 minutes after adding 5× sample buffer, resulting in gel loading sample which proceeded to SDS PAGE gel electrophoresis. The protein bands separated according to their molecular weights by the above electrophoresis were transferred onto nitrocellulose membrane by using transfer kit (Bio-Rad, USA), followed by blocking for one hour with 5% skim milk. Next, each antibody [HA antibody for the detection of ZNF312b, and tubulin antibody for the detection of the control tubulin] was treated thereto at 4° C. for 12 hours. The membrane was washed with TBST buffer (0.2% Tween 20), and then treated with a secondary antibody for 1 hour. The membrane was washed with TBST and developed using HRP detection kit (AB frontier, Korea).
To investigate whether the signal pathway system involved in the cell proliferation of stomach cancer cell line was affected by inhibition of ZNF312b gene, the present inventors inhibited the expression of ZNF312b in stomach cancer cell line by transfecting the cell line with si-ZNF312b-1. […]

ZNF312b gene = ZNF312b gene expression inhibition by siRNA; type: cell-based, human; settings: compared among three siRNAs, FIG. 3
Description: To investigate the cell proliferation capacity of the stomach cancer cell line after inhibiting the expression of ZNF312b gene, three kinds of siRNAs [si-ZNF312b-1: 5′-GCA CTC TCT GCA TCT CAA C-3′ (SEQ. ID. NO: 6), si-ZNF312b-2: 5′-GTG TGT GGA AAG GTC TTT A-3′ (SEQ. ID. NO: 7), and si-ZNF312b-3′: 5′-GCA GTT CAA GTG CAA TAT C-3′ (SEQ. ID. NO: 8)] comprising 19 nucleotides of ZNF312b nucleotide sequence (SEQ. ID. NO: 1) were constructed, which were used for the investigation of ZNF312b gene expression inhibition.

si-ZNF312b-1: siRNA of 19 nucleotides of ZNF312b sequence, 5′-GCA CTC TCT GCA TCT CAA C-3′ (SEQ. ID. NO: 6) (sense GCACTCTCTGCATCTCAAC; listed as DNA, chemistry not given here)
ERK pathway activity (phosphorylation of MEK1/2 and ERK1/2) (K-ras / ERK pathway): inactivation of ERK pathway | K-ras expression (K-ras / ERK pathway): decrease of K-ras expression | ZNF312b gene expression inhibition (ZNF312b gene): highest inhibition activity
